Results from the supplement of paper PMC8183993.
Counter-ions that a name gives are not always drawn.

What was measured:
Details in all cases: 24 h
U2OS [1] = assay: mean OPP incorporation (global translation) relative to DMSO (% of DMSO); higher = more protein synthesis
Experimental: (§1)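 Validation screen in U2OS cells: hits tested at 1, 3 and 10 uM for 24 h in duplicate plates. Translation was read by OPP incorporation (1 h pulse) and HPG incorporation (30 min in methionine-free medium), quantified by high-throughput microscopy alongside nuclei counts. All values are normalised to DMSO (= 100).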

U2OS [2] = assay: mean HPG incorporation (global translation) relative to DMSO (% of DMSO); higher = more protein synthesis
Experimental: as §1

U2OS [3] = assay: nuclei count in OPP assay relative to DMSO (% of DMSO); higher = more viable cells
Experimental: as §1

U2OS [4] = assay: nuclei count in HPG assay relative to DMSO (% of DMSO); higher = more viable cells
Experimental: as §1

Structure (SMILES) | mean OPP incorporation (U2OS [1]; 1 µM) | mean OPP incorporation (U2OS [1]; 3 µM) | mean OPP incorporation (U2OS [1]; 10 µM) | mean HPG incorporation (U2OS [2]; 1 µM) | mean HPG incorporation (U2OS [2]; 3 µM) | mean HPG incorporation (U2OS [2]; 10 µM) | nuclei count in OPP assay (U2OS [3]; 1 µM) | nuclei count in OPP assay (U2OS [3]; 3 µM) | nuclei count in OPP assay (U2OS [3]; 10 µM) | nuclei count in HPG assay (U2OS [4]; 1 µM) | nuclei count in HPG assay (U2OS [4]; 3 µM) | nuclei count in HPG assay (U2OS [4]; 10 µM)
COc1ccccc1N1CCN(CCN2C(=O)c3ccccc3C(C)(C)C2=O)CC1 [ARC 239 dihydrochloride] | 100 | 117 | 120 | 102 | 116 | 122 | 98.8 | 101 | 100 | 106 | 101 | 98.3
COc1cc(COc2cc(N)c(Cl)cc2C(=O)CCC2CCN(CCNS(C)(=O)=O)CC2)cc(OC)c1 | 121 | 122 | 120 | 82.2 | 83.4 | 58.1 | 95.1 | 97.5 | 79.8 | 100 | 106 | 90.1
CC1=C(/C=C/C(C)=C/C=C/C(C)=C/C(=O)Nc2ccc(O)cc2)C(C)(C)CCC1 [Fenretinide] | 107 | 109 | 117 | 98.1 | 93.5 | 96.7 | 97.1 | 96.5 | 87.9 | 102 | 93.9 | 86.7
CCn1c(-c2nonc2N)nc2cnc(Oc3cccc(NC(=O)c4ccc(OCCN5CCOCC5)cc4)c3)cc21 | 97.1 | 97.5 | 97.5 | 73.1 | 71.8 | 76.4 | 102 | 101 | 82.6 | 99 | 96.3 | 76.4
COc1cc2c(cc1C(F)(F)F)N(C(=O)Nc1cc(F)cc(-c3cccnc3)c1)CC2 | 102 | 112 | 117 | 95.1 | 98.3 | 74.3 | 96.9 | 93.9 | 88.4 | 95.9 | 95 | 89
COc1ccccc1S(=O)(=O)Nc1ccc2c(c1)CN(C)C(=O)N2 [PFI-1] | 83.4 | 56.2 | 45.9 | 95.7 | 93.2 | 87 | 99.5 | 106 | 106 | 103 | 101 | 101
Cc1c(-c2ccc(O)cc2)n(Cc2ccc(OCCN3CCCCCC3)cc2)c2ccc(O)cc12 [Bazedoxifene HCl] | 109 | 121 | 133 | 84.1 | 84.9 | 85.2 | 96.8 | 86.5 | 77.9 | 103 | 98.5 | 80.3
CCN(CC)CCOc1ccc(C(=C(Cl)c2ccccc2)c2ccccc2)cc1 [Clomiphene citrate (Z,E)] | 116 | 124 | 136 | 90.2 | 115 | 123 | 88 | 98.6 | 93.3 | 91.3 | 95.3 | 86.7
Cc1ccc(NC(=O)c2ccc(CN3CCN(C)CC3)cc2)cc1Nc1nccc(-c2cccnc2)n1 [Imatinib (STI571)] | 113 | 122 | 131 | 91.5 | 111 | 121 | 97.6 | 97.7 | 95.9 | 102 | 97.7 | 92.4
